Measurements reported in US5753664A, “Heterocyclic compounds, their production and use” (Takeda Chemical Industries, Ltd., priority 1995, dated 1998).
Counter-ions that a name gives are not always drawn. Like-named read-outs stand apart in the source and are kept apart here.

Key:
[1] = system: Prostate carcinoma cell line PC-3; test: In vitro prostate carcinoma cell proliferation inhibition assay (MTT); type: cell-based, human; details: read-out: IC50 PC-3
Protocol: In vitro prostate carcinoma cell proliferation inhibition assay
Prostate carcinoma cell line PC-3 cells were suspended in Ham's F-12K medium (Flow Laboratories or Dainippon Pharmaceutical Co,. Ltd) supplemented with 10% fetal calf serum, and seeded in a 96-well microtiter plate (5000 cells/50 or 75 μl/well). The plate was then incubated in a 5% CO2 incubator at 37° C. On the following day, a 3-fold dilution series with the medium with serum of the test compound in N,N-dimethylformamide (DMF) (50 or 25 μl/well) were added (final volume […]) and the plate was incubated for another 3 days. Following addition of a thiazolyl-tetrazolium (MTT) solution, absorbance based on the viable cell number was determined "Tada et al., Journal of Immunological Methods, 93, 157 (1986)". With the estimated cell number in the control group to which the test compound solution was not added being taken as 100%, the percentage of the estimated cell number in each test group was determined and the concentration (IC50 value) of the test compound which was required for 50% inhibition of the estimated viable cell number in the control group was calculated.

[2] = system: human prostatic carcinoma cells PC-3; test: Inhibitory action against the growth of subcutaneously implanted tumor (Test Example 4, oral dosing); type: in vivo, human; BALB/c nu/nu mouse; details: once a day for 3 weeks; for Tumor volume gain: 52nd day after transplantation, mean ± SD; for T/C: 52nd day, ratio of tumor volume gain treated/control
Protocol: Inhibitory action of the test compound against the growth of subcutaneously implanted tumor
The human prostatic carcinoma cells PC-3, which are maintained in vitro, were harvested using 0.05% trypsin, washed with Ham's F12K medium containing 10% serum, and then suspended in PBS (phosphate-buffered saline) at a concentration of 3×10^7 cells/ml. The aliquot of 100 μl was transplanted into the right central flank region of a 7-week old, male BALB/c nu/nu mouse using a syringe with a 25 gauge needle. After the size of the resulting tumor mass was measured on the 31st day after the transplanation, the mice were divided into groups of five animals (the average tumor volume of each group was between 273 and 293 mm^3), and then the treatment with test compound was commenced. Tumor volume was calculated according to the formulation: tumor volume=0.5×(the longest diameter)×(the shortest diameter)^2 after two-dimensional measurement of the tumor mass by a caliper. The test compound was suspended in 0.5% methylcellulose/physiological saline, and orally administered at a volume of 10 μl/g body weight. Thereafter the test compound was administered once a day for 3 weeks. The inhibitory action was assessed on the 52nd day after the transplanation, the first day after the last administration, by the ratio of tumor volume gain of treated groups to that of the control group (T/C %). The dosage of the test compound is expressed as mg/kg/shot.

[3] = Homo sapiens, 72 h, PC-3, 3 days incubation, MTT

| IC50 [1, 3] | Compound | also measured |
| --- | --- | --- |
| < 1.52 nM | Cc1cn(C)c2nc(SCc3ccc(C(=O)c4ccc(Cl)cc4)cc3)n(C)c(=O)c12 [Example 55, 2-[4-(4-Chlorobenzoyl)benzyl]thio-3,5,7-trimethyl-7H-pyrrolo[2,3-d]pyrimidin-4(3H)-one] |  |
| 4.6 nM | Cc1c(OCc2ccc(C(=O)c3ccc(C(F)(F)F)cc3)cc2)nc2n(c1=O)CCCC2 [Example 385, 3-Methyl-2-[4-(4-trifluoromethylbenzoyl)benzyloxy]-6,7,8,9-tetrahydro-4H-pyrido[1,2-a]pyrimidin-4-one] | Tumor volume gain ([2]; 25 mg/kg p.o.): 893 ± 247 mm^3; T/C ([2]; 25 mg/kg p.o.): 63%; Tumor volume gain ([2]; 50 mg/kg p.o.): 732 ± 156 mm^3; T/C ([2]; 50 mg/kg p.o.): 52%; Tumor volume gain ([2]; 75 mg/kg p.o.): 596 ± 176 mm^3; T/C ([2]; 75 mg/kg p.o.): 42% |
| 9 nM | Cc1cn(C)c2nc(SC(C)c3ccc(C(=O)c4ccc(F)cc4)cc3)n(C)c(=O)c12 (stereo not drawn) [57(B), 2-[1-[4-(4-Fluorobenzoyl)phenyl]ethyl]thio-3,5,7-trimethyl-7H-pyrrolo[2,3-d]pyrimidin-4(3H)-one] |  |
| 2 nM | CCn1c(SC)nc2c(cnn2Cc2ccc(C(=O)c3ccc(OC)cc3)cc2)c1=O [132(A), 5-Ethyl-1-[4-(4-methoxybenzoyl)benzyl]-6-methylthio-1,5-dihydro-4H-pyrazolo[3,4-d]pyrimidin-4-one] |  |
| < 1.52 nM | CCn1cnc2c(c(C)cn2Cc2ccc(C(=O)c3ccc(Cl)cc3)cc2)c1=O [Example 96, 7-[4-(4-Chlorobenzoyl)benzyl]-3-ethyl-5-methyl-7H-pyrrolo [2,3-d]pyrimidin-4(3H)-one] |  |
| 4.5 nM | Cn1c(SCc2ccc(C(=O)c3ccc(N4CCC(N5CCCCC5)CC4)nc3)cc2)nc2ccsc2c1=O [Example 158, 3-Methyl-2-[4-[6-(4-piperidinopiperidinyl)nicotinoyl]benzylthio]thieno[3,2-d]pyrimidin-4(3H)-one hydrochloride] |  |
| 8 nM | Cn1ncc2c(c(Cl)c(Cl)n2Cc2ccc(C(=O)c3ccc(F)cc3)cc2)c1=O [Example 66, 1-[4-(4-Fluorobenzoyl)benzyl]-2,3-dichloro-5-methyl-1H-pyrrolo [2,3-d]pyridazin-4(5H)-one] |  |
| 2.6 nM | O=C(c1ccc(Cn2ccn3c(=O)c4c(nc23)CCCC4)cc1)c1ccc(C(F)(F)F)cc1 [Example 329, 1-[4-(4-Trifluorobenzoyl)benzyl]-6,7,8,9-tetrahydroimidazo[2,1-b]quinazolin-5(1H)-one] |  |
| < 1.52 nM | CC(C)(C)n1ncc2c(cnn2Cc2ccc(C(=O)c3ccc(Cl)cc3)cc2)c1=O [62(A), 5-Tert-butyl-1-[4-(4-chlorobenzoyl)benzyl]-1H-pyrazolo[3,4-d]pyridazin-4(5H)-one] |  |
| 3 nM | Cc1nc2n(Cc3ccc(C(=O)c4ccc(Cl)cc4)cc3)ccn2c(=O)c1C(C)C [Example 181, 1-[4-(4-Chlorobenzoyl)benzyl]-6-isopropyl-7-methylimidazo[1,2-a]pyrimidin-5(1H)-one] |  |
|  | Cc1cccc2nc(SCc3ccc(C(=O)c4ccc(OC(=O)N(C)C)cc4)cc3)n(C)c(=O)c12 [Example 228, 3,5-Dimethyl-2-[4-[4-(N,N-dimethylcarbamoyloxy)-benzoyl]benzylthio]-4(3H)-quinazolinone] | IC50 ([1]; Homo sapiens, 72 h): 7 nM |
| 6.2 nM | Cc1c(SCc2ccc(C(=O)c3ccc(C(F)(F)F)cc3)cc2)nc2n(c1=O)CCCS2 [Example 365, 3,4-Dihydro-7-methyl-8-(4-(4-trifluoromethylbenzoyl)benzylthio)-2H,6H-pyrimido[2,1-b][1,4]thiazin-6-one] |  |
| 8 nM | Cc1c(OCc2ccc(C(=O)c3ccc(C(F)(F)F)cc3)cc2)nc2ccccn2c1=O [Example 124, 3-Methyl-2-[4-(4-trifluoromethylbenzoyl)benzyloxy]pyrido[1,2-a]pyrimidin-4-one] |  |
| 2 nM | Cc1cn(Cc2ccc(C(=O)c3ccc(Cl)cc3)cc2)c2ncn(C)c(=O)c12 [Example 94, 7-[4-(4-Chlorobenzoyl)benzyl]-3,5-dimethyl-7H-pyrrolo [2,3-d]pyrimidin-4(3H)-one] |  |
| 5 nM | Cc1cn(C)c2nc(SCc3ccc(C(=O)c4ccc(F)cc4)cc3)n(C)c(=O)c12 [57(A), 2-[4-(4-Fluorobenzoyl)benzyl]thio-3,5,7-trimethyl-7H-pyrrolo[2,3-d]pyrimidin-4(3H)-one] |  |
| < 1.52 nM | CCn1c(SC)nc2c(cnn2Cc2ccc(C(=O)c3ccc(Cl)cc3)cc2)c1=O [129(A)] |  |
| < 1.52 nM | Cc1csc2nc(SCc3ccc(C(=O)c4ccc(OCCN5CCOCC5)cc4)cc3)n(C)c(=O)c12 [Example 148, 3,5-Dimethyl-2-[4-[4-(2-morpholinoethoxy)benzoyl]-benzylthio]thieno[2,3-d]pyrimidin-4(3H)-one] |  |
| < 1.52 nM | Cc1cccc2nc(SCc3ccc(C(=O)c4ccc(CSc5nnnn5CCN(C)C)cc4)cc3)n(C)c(=O)c12 [Example 138, 3,5-Dimethyl-2-[4-[4-[[1-(2-dimethylaminoethyl)-1H-tetrazol-5-yl]thiomethyl]benzoyl]benzylthio]-4(3H)-quinazolinone] |  |
| 9 nM | Cc1c[nH]c2nc(SCc3ccc(C(=O)c4ccc(Cl)cc4)cc3)[nH]c(=O)c12 [Example 50, 2-[4-(4-Chlorobenzoyl)benzyl]thio-5-methyl-7H-pyrrolo[2,3-d]pyrimidin-4(3H)-one] |  |
| 7 nM | Cc1cccc2nc(SCc3ccc(C(=O)c4ccc(OCC(=O)c5ccccc5)cc4)cc3)n(C)c(=O)c12 [Example 234, 3,5-Dimethyl-2-[4-(4-phenacyloxybenzoyl)benzylthio]-4-(3H)-quinazolinone] |  |
|  | CCOP(=O)(OCC)Oc1ccc(C(=O)c2ccc(CSc3nc4cccc(C)c4c(=O)n3C)cc2)cc1 [Example 217, 2-[4-(4-Diethylphosphonooxybenzoyl)benzylthio]-3,5-dimethyl-4(3H)-quinazolinone] | IC50 ([1]; PC-3, 3 days incubation, MTT): < 1.52 nM |
| < 1.52 nM | CCn1c(SC)nc2c(ccn2Cc2ccc(C(=O)c3ccc(Cl)cc3)cc2)c1=O [Example 252, 7-[4-(4-Chlorobenzoyl)benzyl]-3-ethyl-2-methylthio-7H-pyrrolo[2,3-d]pyrimidin-4-one] |  |
| < 1.52 nM | Cc1cccc2nc(SCc3ccc(C(=O)c4ccc(C(=O)N5CCN(C)CC5)cc4)cc3)n(C)c(=O)c12 [Example 184, 3,5-Dimethyl-2-[4-[4-(4-methylpiperazinocarbonyl)benzoyl]benzyl]thio-4(3H)-quinazolinone] |  |
| 5.2 nM | CCc1cccc2nc(SCc3ccc(C(=O)c4ccc(Cl)cc4)cc3)n(C)c(=O)c12 [Example 214, 2-[4-(4-Chlorobenzoyl)benzyl]thio-5-ethyl-3-methyl-4(3H)-quinazolinone] |  |
| 2 nM | Cc1cccc2nc(SCc3ccc(C(=O)c4ccc(C(=O)N5CCC(N6CCCCC6)CC5)cc4)cc3)n(C)c(=O)c12 [Example 193, 3,5-Dimethyl-2-[4-[4-(4-piperidinopiperidinocarbonyl)benzoyl]benzyl]thio-4(3H)-quinazolinone] |  |
| 6 nM | Cn1ncc2c(c(Cl)c(Cl)n2Cc2ccc(C(=O)c3ccc(Cl)cc3)cc2)c1=O [Example 37, 1-[4-(4-Chlorobenzoyl)benzyl]-2,3-dichloro-5-methyl-1H-pyrrolo[2,3-d]pyridazin-4(5H)-one] |  |
| 0.94 nM | Cc1ccc(C(=O)c2ccc(COc3nc4n(c(=O)c3C)CCCS4)cc2)cc1 [Example 406, 7-Methyl-8-[4-(4-methylbenzoyl)benzyloxy]-3,4-dihydro-2H,6H-pyrimido[2,1-b][1,3]thiazin-6-one] |  |
| < 1.52 nM | Cc1cccc2nc(SCc3ccc(C(=O)c4ccc(CN5CCN(C)CC5)cc4)cc3)n(C)c(=O)c12 [Example 144, 3,5-Dimethyl-2-[4-[4-(4-methylpiperazinylmethyl)benzoyl]benzylthio]-4(3H)-quinazolinone] |  |
| < 1.52 nM | CCc1c(C)nc2n(Cc3ccc(C(=O)c4ccc(Cl)cc4)cc3)ccn2c1=O [Example 169, 1-[4-(4-Chlorobenzoyl)benzyl]-6-ethyl-7-methylimidazo[1,2-a]pyrimidin-5(1H)-one] |  |
| 2 nM | Cc1nn(Cc2ccc(C(=O)c3ccc(Cl)cc3)cc2)c2cnn(C)c(=O)c12 [84(A), 1-[4-(4-Chlorobenzoyl)benzyl]-3,5-dimethyl-1H-pyrazolo [3,4-d]pyridazin-4(5H)-one] |  |
